Results on 2 compounds are retold here after ChEMBL document CHEMBL4387741, “Optimization of novel reversible Bruton's tyrosine kinase inhibitors identified using Tethering-fragment-based screens” (Bioorg Med Chem, 2019).

As usually defined, the inhibition is the change of the read-out against control, counted positive when it falls.

Experiment [1] has as its system Tyrosine-protein kinase ABL1 (Homo sapiens), P00519 [Q252H]. In words: Inhibition of human phosphorylated ABL1 Q252H mutant expressed in mammalian expression system at 1 uM by Kinomescan method relative to control.
Experiment [2] concerns the target Cyclin-dependent kinase 9 (Homo sapiens) (UniProt P50750). The experiment in a line: Inhibition of wild-type human full length CDK9 (M1 to F372 residues) expressed in bacterial expression system at 1 uM by Kinomescan method relative to control.
Experiment [3] concerns the target Death-associated protein kinase 2 (Homo sapiens) (UniProt Q9UIK4). The experiment in a line: Inhibition of wild-type human full length DAPK2 (M1 to S370 residues) expressed in bacterial expression system at 1 uM by Kinomescan method relative to control.
The target in experiment [4] is Ephrin type-A receptor 5 (Homo sapiens) (UniProt P54756). The experiment in a line: Inhibition of wild-type human partial length EPHA5 (T627 to V930 residues) expressed in bacterial expression system at 1 uM by Kinomescan method relative to control.
For experiment [5], the target named is Mitogen-activated protein kinase 7 (Homo sapiens) (UniProt Q13164). The experiment in a line: Inhibition of wild-type human partial length ERK5 (M1 to A409 residues) expressed in bacterial expression system at 1 uM by Kinomescan method relative to control.
Sequence of Mitogen-activated protein kinase 7 (Homo sapiens) (Q13164 2-816 limits assumed): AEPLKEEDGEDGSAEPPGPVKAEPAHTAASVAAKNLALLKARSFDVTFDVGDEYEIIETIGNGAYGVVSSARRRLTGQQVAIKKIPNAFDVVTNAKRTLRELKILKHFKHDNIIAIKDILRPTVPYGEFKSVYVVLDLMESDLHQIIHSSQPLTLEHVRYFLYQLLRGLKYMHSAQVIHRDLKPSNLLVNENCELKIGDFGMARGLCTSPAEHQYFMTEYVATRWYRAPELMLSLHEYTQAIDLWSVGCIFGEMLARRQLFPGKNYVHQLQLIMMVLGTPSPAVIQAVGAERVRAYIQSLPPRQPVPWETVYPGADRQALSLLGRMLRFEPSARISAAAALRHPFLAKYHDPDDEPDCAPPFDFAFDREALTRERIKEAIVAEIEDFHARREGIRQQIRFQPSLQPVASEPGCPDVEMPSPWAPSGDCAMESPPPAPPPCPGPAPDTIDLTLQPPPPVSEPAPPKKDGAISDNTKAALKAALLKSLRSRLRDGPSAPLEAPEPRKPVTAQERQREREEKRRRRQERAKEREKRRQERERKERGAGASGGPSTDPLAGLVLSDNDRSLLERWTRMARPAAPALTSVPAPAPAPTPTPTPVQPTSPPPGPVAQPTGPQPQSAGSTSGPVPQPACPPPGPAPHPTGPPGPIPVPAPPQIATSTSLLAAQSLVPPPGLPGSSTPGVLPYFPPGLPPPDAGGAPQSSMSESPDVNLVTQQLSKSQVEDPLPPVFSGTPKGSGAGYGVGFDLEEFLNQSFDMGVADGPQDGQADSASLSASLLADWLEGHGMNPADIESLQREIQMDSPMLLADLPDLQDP
For experiment [6], the target named is Fibroblast growth factor receptor 4 (Homo sapiens) (UniProt P22455). In words: Inhibition of wild-type human partial length FGFR4 (G402 to E713 residues) expressed in bacterial expression system at 1 uM by Kinomescan method relative to control.
Sequence of Fibroblast growth factor receptor 4 (Homo sapiens) (P22455 22-802 limits assumed): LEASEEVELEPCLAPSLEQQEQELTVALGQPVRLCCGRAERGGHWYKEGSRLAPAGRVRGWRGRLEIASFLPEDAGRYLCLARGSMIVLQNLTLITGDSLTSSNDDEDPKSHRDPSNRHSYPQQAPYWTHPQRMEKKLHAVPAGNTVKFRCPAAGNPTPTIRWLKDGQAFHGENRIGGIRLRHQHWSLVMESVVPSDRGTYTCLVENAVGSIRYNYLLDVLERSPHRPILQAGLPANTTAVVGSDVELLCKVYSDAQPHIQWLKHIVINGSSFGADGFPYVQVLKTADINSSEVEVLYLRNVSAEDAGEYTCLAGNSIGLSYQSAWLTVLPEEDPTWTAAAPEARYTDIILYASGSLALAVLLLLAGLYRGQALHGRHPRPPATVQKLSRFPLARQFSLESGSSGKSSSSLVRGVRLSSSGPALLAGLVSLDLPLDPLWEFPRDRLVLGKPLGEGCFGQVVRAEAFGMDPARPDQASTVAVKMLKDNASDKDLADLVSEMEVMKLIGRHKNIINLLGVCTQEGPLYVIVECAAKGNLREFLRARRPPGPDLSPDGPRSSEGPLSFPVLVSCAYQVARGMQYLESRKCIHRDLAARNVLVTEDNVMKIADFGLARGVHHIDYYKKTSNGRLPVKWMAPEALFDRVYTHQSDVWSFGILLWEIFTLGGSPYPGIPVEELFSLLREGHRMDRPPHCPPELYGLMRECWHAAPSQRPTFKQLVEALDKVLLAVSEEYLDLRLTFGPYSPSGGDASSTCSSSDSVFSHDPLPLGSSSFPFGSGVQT
The target of experiment [7] is Tyrosine-protein kinase ITK/TSK (Homo sapiens) (UniProt Q08881). In words: Inhibition of wild-type human partial length ITK (R335 to L620 residues) expressed in bacterial expression system at 1 uM by Kinomescan method relative to control.
The target in experiment [8] is Misshapen-like kinase 1 (Homo sapiens) (UniProt Q8N4C8). In words: Inhibition of wild-type human partial length MINK (M1 to K312 residues) expressed in mammalian expression system at 1 uM by Kinomescan method relative to control.
Sequence of Misshapen-like kinase 1 (Homo sapiens) (Q8N4C8 whole entry, looked up, the tested form may be a part): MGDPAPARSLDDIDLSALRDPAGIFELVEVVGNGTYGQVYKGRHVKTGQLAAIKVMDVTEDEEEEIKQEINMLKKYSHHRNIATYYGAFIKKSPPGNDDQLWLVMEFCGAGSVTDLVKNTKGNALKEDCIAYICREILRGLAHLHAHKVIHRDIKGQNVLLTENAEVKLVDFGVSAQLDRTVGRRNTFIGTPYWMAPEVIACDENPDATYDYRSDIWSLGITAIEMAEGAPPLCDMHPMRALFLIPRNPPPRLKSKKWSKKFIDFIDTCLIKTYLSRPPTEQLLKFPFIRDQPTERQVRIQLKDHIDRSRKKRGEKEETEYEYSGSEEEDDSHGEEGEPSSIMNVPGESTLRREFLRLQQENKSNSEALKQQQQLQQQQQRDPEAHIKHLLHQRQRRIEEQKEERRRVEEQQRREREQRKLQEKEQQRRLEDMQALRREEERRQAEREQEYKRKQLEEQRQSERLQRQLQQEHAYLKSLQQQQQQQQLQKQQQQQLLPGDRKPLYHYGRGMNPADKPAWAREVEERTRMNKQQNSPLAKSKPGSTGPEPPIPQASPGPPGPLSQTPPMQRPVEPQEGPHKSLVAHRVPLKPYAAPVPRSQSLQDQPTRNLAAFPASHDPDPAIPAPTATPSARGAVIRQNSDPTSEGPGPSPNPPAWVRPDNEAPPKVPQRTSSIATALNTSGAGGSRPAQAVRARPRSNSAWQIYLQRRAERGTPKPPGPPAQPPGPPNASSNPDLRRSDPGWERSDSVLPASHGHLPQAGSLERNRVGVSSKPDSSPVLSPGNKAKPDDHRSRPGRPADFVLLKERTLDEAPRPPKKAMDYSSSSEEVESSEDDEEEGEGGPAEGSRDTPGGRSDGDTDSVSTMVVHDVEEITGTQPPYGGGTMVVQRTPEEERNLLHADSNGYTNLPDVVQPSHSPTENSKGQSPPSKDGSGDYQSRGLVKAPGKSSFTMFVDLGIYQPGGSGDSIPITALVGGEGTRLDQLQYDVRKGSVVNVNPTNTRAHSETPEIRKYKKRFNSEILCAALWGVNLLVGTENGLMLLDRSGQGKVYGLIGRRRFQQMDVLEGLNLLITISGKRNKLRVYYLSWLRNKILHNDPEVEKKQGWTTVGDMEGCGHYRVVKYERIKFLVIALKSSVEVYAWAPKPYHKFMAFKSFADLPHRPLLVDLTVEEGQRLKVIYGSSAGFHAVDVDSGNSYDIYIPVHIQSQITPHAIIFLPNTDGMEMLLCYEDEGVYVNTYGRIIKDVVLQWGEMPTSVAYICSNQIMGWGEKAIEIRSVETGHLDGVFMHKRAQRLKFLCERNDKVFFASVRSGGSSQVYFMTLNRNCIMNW
In experiment [9] the target is MAP kinase-interacting serine/threonine-protein kinase 2 (Homo sapiens) (UniProt Q9HBH9). The experiment in a line: Inhibition of wild-type human partial length MKNK2 (G63 to S388 residues) expressed in mammalian expression system at 1 uM by Kinomescan method relative to control.
Experiment [10] concerns the target Serine/threonine-protein kinase 38 (Homo sapiens) (UniProt Q15208). The experiment in a line: Inhibition of wild-type human partial length NDR1 (N33 to E449 residues) expressed in mammalian expression system at 1 uM by Kinomescan method relative to control.
The target of experiment [11] is Serine/threonine-protein kinase Nek5 (Homo sapiens) (UniProt Q6P3R8). The experiment in a line: Inhibition of wild-type human partial length NEK5 (M1 to M279 residues) expressed in bacterial expression system at 1 uM by Kinomescan method relative to control.
Experiment [12] concerns Phosphatidylinositol 4,5-bisphosphate 3-kinase catalytic subunit alpha isoform (Homo sapiens), P42336 [E545A]. In words: Inhibition of human partial length PIK3CA E545A mutant (R108 to N1068 residues) expressed in mammalian expression system at 1 uM by Kinomescan method relative to control.
Experiment [13] addresses Serine/threonine-protein kinase 32B (Homo sapiens) (UniProt Q9NY57). In words: Inhibition of wild-type human full length YANK2 (M1 to S414 residues) expressed in bacterial expression system at 1 uM by Kinomescan method relative to control.
Experiment [14] deals with Bone morphogenetic protein receptor type-1A (Homo sapiens) (UniProt P36894). The experiment in a line: Inhibition of wild-type human partial length BMPR1A (Q214 to I532 residues) expressed in bacterial expression system at 10 uM by Kinomescan method relative to control.
In experiment [15] the target is Megakaryocyte-associated tyrosine-protein kinase (Homo sapiens) (UniProt P42679). The experiment in a line: Inhibition of wild-type human full length CTK (M43 to P508 residues) expressed in mammalian expression system at 10 uM by Kinomescan method relative to control.
In experiment [16] the test system is Receptor-type tyrosine-protein kinase FLT3 (Homo sapiens), P36888 [D835H]. In words: Inhibition of human partial length FLT3 D835H mutant (V592 to Y969 residues) expressed in bacterial expression system at 10 uM by Kinomescan method relative to control.
Experiment [17] has as its system Receptor-type tyrosine-protein kinase FLT3 (Homo sapiens), P36888 [K663Q]. In words: Inhibition of human partial length FLT3 K663Q mutant (V592 to Y969 residues) expressed in bacterial expression system at 10 uM by Kinomescan method relative to control.
Experiment [18] has as its target Rhodopsin kinase GRK7 (Homo sapiens) (UniProt Q8WTQ7). The experiment in a line: Inhibition of wild-type human full length GRK7 (M1 to L553 residues) expressed in mammalian expression system at 10 uM by Kinomescan method relative to control.
The target of experiment [19] is Maternal embryonic leucine zipper kinase (Homo sapiens) (UniProt Q14680). The experiment in a line: Inhibition of wild-type human full length MELK (M1 to V651 residues) expressed in bacterial expression system at 10 uM by Kinomescan method relative to control.
Experiment [20] concerns the target Misshapen-like kinase 1 (Homo sapiens) (UniProt Q8N4C8). The experiment in a line: Inhibition of wild-type human partial length MINK (M1 to K312 residues) expressed in mammalian expression system at 10 uM by Kinomescan method relative to control.
The target of experiment [21] is Serine/threonine-protein kinase PAK 1 (Homo sapiens) (UniProt Q13153). In words: Inhibition of wild-type human partial length PAK1 (S149 to H545 residues) expressed in bacterial expression system at 10 uM by Kinomescan method relative to control.
Experiment [22] addresses Cyclin-dependent kinase 16 (Homo sapiens) (UniProt Q00536). The experiment in a line: Inhibition of wild-type human partial length PCTK1 (G160 to A474 residues) expressed in mammalian expression system at 10 uM by Kinomescan method relative to control.
For experiment [23], the target named is Calcium-dependent protein kinase 1 (Plasmodium falciparum) (UniProt P62344). The experiment in a line: Inhibition of wild-type Plasmodium falciparum full length CDPK1 (M1 to S524 residues) expressed in mammalian expression system at 10 uM by Kinomescan method relative to control.
For experiment [24], the target named is Cyclin-dependent kinase 14 (Homo sapiens) (UniProt O94921). The experiment in a line: Inhibition of wild-type human full length PFTK1 (M1 to H451 residues) expressed in bacterial expression system at 10 uM by Kinomescan method relative to control.
The target of experiment [25] is Serine/threonine-protein kinase PLK1 (Homo sapiens) (UniProt P53350). In words: Inhibition of wild-type human partial length PLK1 (A33 to F325 residues) expressed in mammalian expression system at 10 uM by Kinomescan method relative to control.
Experiment [26] addresses Serine/threonine-protein kinase D2 (Homo sapiens) (UniProt Q9BZL6). In words: Inhibition of wild-type human partial length PRKD2 (A519 to E838 residues) expressed in bacterial expression system at 10 uM by Kinomescan method relative to control.
Experiment [27] deals with Non-receptor tyrosine-protein kinase TYK2 (Homo sapiens) (UniProt P29597). The experiment in a line: Inhibition of wild-type human partial length TYK2 JH1 catalytic domain (V877 to C1187 residues) expressed in mammalian expression system at 10 uM by Kinomescan method relative to control.

Sequence of Serine/threonine-protein kinase 32B (Homo sapiens) (Q9NY57 whole entry, the tested form may be a part): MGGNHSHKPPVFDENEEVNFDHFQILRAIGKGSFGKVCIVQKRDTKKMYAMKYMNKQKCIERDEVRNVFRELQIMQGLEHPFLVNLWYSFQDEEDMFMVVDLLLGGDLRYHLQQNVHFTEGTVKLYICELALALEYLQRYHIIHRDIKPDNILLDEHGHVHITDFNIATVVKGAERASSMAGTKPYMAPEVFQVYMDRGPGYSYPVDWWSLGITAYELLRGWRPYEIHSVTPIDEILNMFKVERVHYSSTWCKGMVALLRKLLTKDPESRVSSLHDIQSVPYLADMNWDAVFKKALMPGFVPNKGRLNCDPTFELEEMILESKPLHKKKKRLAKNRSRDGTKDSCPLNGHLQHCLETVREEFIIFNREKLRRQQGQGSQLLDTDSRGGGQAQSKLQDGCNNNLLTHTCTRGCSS
Sequence of Cyclin-dependent kinase 16 (Homo sapiens) (Q00536 whole entry, the tested form may be a part): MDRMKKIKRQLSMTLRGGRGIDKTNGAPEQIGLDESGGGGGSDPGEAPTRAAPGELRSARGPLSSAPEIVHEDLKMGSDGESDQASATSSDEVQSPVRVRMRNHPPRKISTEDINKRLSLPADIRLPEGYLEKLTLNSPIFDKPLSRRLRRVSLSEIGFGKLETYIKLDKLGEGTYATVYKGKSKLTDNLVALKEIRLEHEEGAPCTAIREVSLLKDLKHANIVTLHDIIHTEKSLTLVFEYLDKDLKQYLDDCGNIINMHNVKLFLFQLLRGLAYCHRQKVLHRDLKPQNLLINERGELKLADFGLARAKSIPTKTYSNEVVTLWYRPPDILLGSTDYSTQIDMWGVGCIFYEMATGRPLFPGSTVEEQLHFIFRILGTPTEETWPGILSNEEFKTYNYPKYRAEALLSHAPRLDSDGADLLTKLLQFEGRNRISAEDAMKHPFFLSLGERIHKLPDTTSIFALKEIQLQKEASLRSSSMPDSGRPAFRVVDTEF
Sequence of Serine/threonine-protein kinase 38 (Homo sapiens) (Q15208 2-465 limits assumed): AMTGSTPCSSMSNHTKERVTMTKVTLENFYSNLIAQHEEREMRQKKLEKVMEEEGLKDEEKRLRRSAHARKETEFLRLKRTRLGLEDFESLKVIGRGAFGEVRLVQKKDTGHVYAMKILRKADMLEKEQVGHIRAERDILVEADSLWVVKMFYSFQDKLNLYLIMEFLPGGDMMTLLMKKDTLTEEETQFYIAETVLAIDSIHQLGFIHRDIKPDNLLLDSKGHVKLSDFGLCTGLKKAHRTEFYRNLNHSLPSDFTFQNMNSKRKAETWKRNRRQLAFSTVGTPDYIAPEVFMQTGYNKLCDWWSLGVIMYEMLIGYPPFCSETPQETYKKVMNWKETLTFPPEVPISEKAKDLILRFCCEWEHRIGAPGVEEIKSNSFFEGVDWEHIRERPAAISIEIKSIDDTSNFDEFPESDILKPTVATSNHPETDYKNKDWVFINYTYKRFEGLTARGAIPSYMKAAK
Sequence of Rhodopsin kinase GRK7 (Homo sapiens) (Q8WTQ7 whole entry, the tested form may be a part): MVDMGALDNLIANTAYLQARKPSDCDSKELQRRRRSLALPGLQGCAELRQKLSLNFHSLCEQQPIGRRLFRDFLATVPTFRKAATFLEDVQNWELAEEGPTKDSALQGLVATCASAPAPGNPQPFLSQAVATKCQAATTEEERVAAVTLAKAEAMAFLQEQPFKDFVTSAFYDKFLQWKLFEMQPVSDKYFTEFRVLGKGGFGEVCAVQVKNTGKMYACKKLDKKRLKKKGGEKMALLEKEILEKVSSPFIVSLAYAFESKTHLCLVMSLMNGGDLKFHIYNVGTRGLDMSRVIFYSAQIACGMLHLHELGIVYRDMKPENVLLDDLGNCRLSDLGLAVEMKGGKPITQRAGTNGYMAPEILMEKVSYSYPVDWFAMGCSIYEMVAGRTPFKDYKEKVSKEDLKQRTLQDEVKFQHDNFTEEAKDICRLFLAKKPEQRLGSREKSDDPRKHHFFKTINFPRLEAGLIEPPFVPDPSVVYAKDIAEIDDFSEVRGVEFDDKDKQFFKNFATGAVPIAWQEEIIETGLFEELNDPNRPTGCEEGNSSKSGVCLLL

Consider `O=C(Nc1cccc([C@@H]2CN(c3ncnc4[nH]ccc34)CCN2CCO)c1)Nc1c(F)cccc1N1CCCC1`, for which the inhibition in [1] is 95%; in experiment [2], 100%; in [3], 6.1%; in [4] it was 92%; in experiment [5], 100%; in experiment [6], 100%. Moreover, the inhibition in [7] stood at 0.8%; in [8] it was 69%; in experiment [9] it was 64%; in experiment [10], 72%; in experiment [11], 100%; in experiment [12], 65%. This compound gave an inhibition in experiment [13] of 100%.
For `O=C(Nc1cccc([C@H]2CCCN(c3ncnc4[nH]ccc34)C2)c1)Nc1ccccc1N1CCCC1`, the inhibition in experiment [14] is 82%; in experiment [15], 85%; in experiment [16], 1.3%; in experiment [17], 8.1%; in experiment [18], 80%; in experiment [19], 36%. Further, the inhibition is 37% in experiment [20]; 90% in experiment [21]; 70% in experiment [22]; 9.9% in [23]; 61% in [24]; 72% in [25]. Moreover, the inhibition in experiment [26] came to 85%; in [27] it was 0.6%.
